Assay: Dynamic vapor sorption (DVS), hygroscopicity
Assay type: physicochemical
Settings: for hygroscopicity (DVS, in words): FIGS. 5 and 6
Method: Dynamic Vapor Sorption DVS was measured on a VTI Model SGA-100 system. Measurement method: The relative humidity (RH) was changed in a controlled fashion, in 5% steps from 5.0% to 95.0% then back to 5.0% using the gravimetric vapor sorption system, and the weight percentage change (wt %) of the sample at each stage was measured.

Row | Structure (SMILES) | hygroscopicity (DVS, in words) | weight gain (DVS) (at 75% relative humidity (RH) at 25° C., FIG. 6) | weight increase (DVS) (upon increasing relative humidity from 5.0% to 95.0%, FIG. 5)
1 | CCN(c1cc(-c2ccc(CN3CCOCC3)cc2)cc(C(=O)NCc2c(C)cc(C)[nH]c2=O)c1C)C1CCOCC1 [Polymorph A, 4-((3′-(((4,6-Dimethyl-2-oxo-1,2-dihydropyridin-3-yl)methyl)carbamoyl)-5′-(ethyl(tetrahydro-2H-pyran-4-yl)amino)-4′-methyl-[1,1′-biphenyl]-4-yl)methyl)morpholin-4-ium chloride] | some hygroscopicity | 4-6% | –
2 | CCN(c1cc(-c2ccc(CN3CCOCC3)cc2)cc(C(=O)NCc2c(C)cc(C)[nH]c2=O)c1C)C1CCOCC1.Cl [Polymorph C, 4-((3′-(((4,6-Dimethyl-2-oxo-1,2-dihydropyridin-3-yl)methyl)carbamoyl)-5′-(ethyl(tetrahydro-2H-pyran-4-yl)amino)-4′-methyl-[1,1-biphenyl]-4-yl)methyl)morpholin-4-ium chloride] | non-hygroscopic | – | less than 1.5%

From patent US10710987B2, “Hydrochloride salt form for EZH2 inhibition” (Epizyme, Inc., priority 2013, dated 2020)
